Results on 14 compounds are retold here after PubChem BioAssay (NCI).

Each structure is given as a SMILES string.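 Exposure lasted 48 hours, with cells grown in 96-well plates and compounds tested at five concentrations. TGI is the concentration that stops growth completely.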 Some results are limits rather than exact numbers.

Some test systems named below: RXF 393 renal; SK-OV-3 ovarian; COLO 205 colon; ACHN renal; CCRF-CEM leukemia; HCT-15 colon; NCI-H522 lung; A498 renal; KM12 colon; OVCAR-5 ovarian; MDA-MB-435; SF-539 CNS; MCF7 breast.
Common to all, as to assay: NCI anticancer screen, dose series, 48 h

Take `O=c1[nH]c2c(c(=O)[nH]1)C(c1ccc([N+](=O)[O-])cc1)c1c([nH]c(=O)[nH]c1=O)O2`: the TGI in the assay on RXF 393 renal was above 100 µM; in the assay on SK-OV-3 ovarian, above 100 µM; with COLO 205 colon it was above 100 µM; in the assay with ACHN renal, above 100 µM; with CCRF-CEM leukemia, 90.5 µM; in the assay with HCT-15 colon it was above 100 µM. The TGI in the assay on NCI-H522 lung is 82.9 µM; in the assay on A498 renal, above 100 µM; with KM12 colon it was above 100 µM; with OVCAR-5 ovarian it was above 100 µM; in the assay on MDA-MB-435 it was above 100 µM.

For the compound `C/C(=N/O)c1sc(-c2nc(C)c(/C(C)=N\O)s2)nc1C`, the TGI in the assay on SF-539 CNS, with RXF 393 renal, in the assay on SK-OV-3 ovarian, with COLO 205 colon, with ACHN renal and with CCRF-CEM leukemia was above 100 µM throughout. Besides, the TGI with HCT-15 colon and in the assay on A498 renal was above 100 µM each time.

Consider `NC(N)=NS(=O)(=O)c1ccc(NC(=O)c2cccc3c(N)c4ccccc4nc23)cc1`, for which the TGI in the assay with SF-539 CNS, with RXF 393 renal, in the assay on SK-OV-3 ovarian, in the assay on COLO 205 colon, with ACHN renal and with CCRF-CEM leukemia was above 100 µM each time. Moreover, the TGI with HCT-15 colon, with NCI-H522 lung, in the assay with A498 renal, in the assay on KM12 colon and in the assay with OVCAR-5 ovarian was above 100 µM in each case.

Regarding `Cc1nc2c3c(ccc2[nH]c1=O)C(=O)c1ccccc1C3=O`, the TGI in the assay on SF-539 CNS, in the assay on RXF 393 renal, in the assay with SK-OV-3 ovarian, in the assay on COLO 205 colon, in the assay on ACHN renal and in the assay on HCT-15 colon was above 100 µM in each case. Also, the TGI in the assay on NCI-H522 lung, with A498 renal, in the assay with KM12 colon and in the assay on OVCAR-5 ovarian was above 100 µM each time.

Take `CC(C)c1ccc(/C=C/c2cc(C(=O)NNC(=O)NC3CCCCC3)nc(=S)[nH]2)cc1`: the TGI in the assay on SF-539 CNS, in the assay with RXF 393 renal, in the assay with SK-OV-3 ovarian, with COLO 205 colon, in the assay with ACHN renal and with HCT-15 colon was above 100 µM throughout. The TGI in the assay with NCI-H522 lung, with A498 renal, in the assay with KM12 colon and with OVCAR-5 ovarian was above 100 µM throughout.

As to `COC(=O)C(=O)C(/C(=N/N)C(=O)Nc1ccccc1C(N)=O)c1nc2ccc([N+](=O)[O-])cc2[nH]c1=O` (configuration not stated), the TGI with SF-539 CNS, with COLO 205 colon, in the assay on ACHN renal, with CCRF-CEM leukemia, in the assay on HCT-15 colon and in the assay with NCI-H522 lung was above 100 µM in each case. Moreover, the TGI in the assay with A498 renal, in the assay with KM12 colon and with OVCAR-5 ovarian was above 100 µM each time.

Take `O=C(NCCCN(CCCCN(CCCNC(=O)c1cc(S(=O)(=O)O)cc(O)c1O)C(=O)c1cc(S(=O)(=O)O)cc(O)c1O)C(=O)c1cc(S(=O)(=O)O)cc(O)c1O)c1cc(S(=O)(=O)O)cc(O)c1O`: the TGI with COLO 205 colon, in the assay on ACHN renal, in the assay with CCRF-CEM leukemia, in the assay on HCT-15 colon, with NCI-H522 lung and with A498 renal was above 100 µM in each case. Also, the TGI in the assay with KM12 colon and in the assay with MDA-MB-435 was above 100 µM throughout.

Turning to `CC1=C(C(=O)CC(=O)C(=O)Nc2ccc(C)c(C)c2)Sc2ccccc2N1`, the TGI with SF-539 CNS, with RXF 393 renal, in the assay with SK-OV-3 ovarian, with COLO 205 colon, in the assay with ACHN renal and with HCT-15 colon was above 100 µM throughout. Moreover, the TGI in the assay with NCI-H522 lung, with A498 renal, in the assay with KM12 colon and in the assay on OVCAR-5 ovarian was above 100 µM each time.

Consider `CCN(CC)Cc1cc(Nc2ccnc3ccc4nn(C)nc4c23)ccc1O`, for which the TGI was 26.5 µM with SF-539 CNS; 21.6 µM with RXF 393 renal; 57.7 µM in the assay on SK-OV-3 ovarian; 19.1 µM in the assay with COLO 205 colon; 68.3 µM in the assay on ACHN renal; above 100 µM in the assay on CCRF-CEM leukemia. Further, the TGI in the assay with HCT-15 colon came out at 43.8 µM; in the assay on NCI-H522 lung, 21.6 µM; with KM12 colon, 25.9 µM; in the assay on OVCAR-5 ovarian it was 35.7 µM.

`Cc1ccc(Sc2ccccc2N)cc1`: the TGI in the assay with SF-539 CNS was 87.9 µM; in the assay with RXF 393 renal, 47.2 µM; with SK-OV-3 ovarian, above 100 µM; in the assay on COLO 205 colon, above 100 µM; in the assay with ACHN renal, above 100 µM; in the assay with CCRF-CEM leukemia it was 70 µM. In addition, the TGI with HCT-15 colon is above 100 µM; with NCI-H522 lung it was 38.1 µM; in the assay with A498 renal, above 100 µM; with KM12 colon, above 100 µM; in the assay on OVCAR-5 ovarian, above 100 µM.

With `O=C(Cc1nc2ccc([N+](=O)[O-])cc2[nH]c1=O)C(=O)Nc1ccccc1[N+](=O)[O-]`, the TGI in the assay with SF-539 CNS, with RXF 393 renal, with SK-OV-3 ovarian, in the assay with COLO 205 colon, in the assay on ACHN renal and in the assay with CCRF-CEM leukemia was above 100 µM each time. In addition, the TGI in the assay with HCT-15 colon, in the assay with NCI-H522 lung, in the assay with A498 renal, in the assay on KM12 colon and in the assay with OVCAR-5 ovarian was above 100 µM throughout.

Turning to `Cc1ccccc1Nc1nc(NNC(=O)Cc2ccccc2)nc(NNC(=O)c2ccncc2)n1`, the TGI with SF-539 CNS, in the assay on MCF7 breast, in the assay with SK-OV-3 ovarian, with COLO 205 colon, with CCRF-CEM leukemia and in the assay with HCT-15 colon was above 10 µM in each case. Further, the TGI in the assay on KM12 colon is above 10 µM.

Turning to `COc1ccc(/C=C2\CCC(CCN3CCOCC3)C2=O)cc1` (configuration not stated), the TGI in the assay on SF-539 CNS, in the assay with RXF 393 renal, with ACHN renal, with CCRF-CEM leukemia, in the assay on HCT-15 colon and with A498 renal was above 100 µM throughout. In addition, the TGI with KM12 colon and in the assay with OVCAR-5 ovarian was above 100 µM in each case.

For `O=C(O)c1ccc([C@@H]2C(=O)N(O)[C@@H]3C=CC[C@@H]32)cc1`, the TGI with SF-539 CNS, in the assay with RXF 393 renal, in the assay with SK-OV-3 ovarian, in the assay with COLO 205 colon, with CCRF-CEM leukemia and in the assay on HCT-15 colon was above 100 µM in each case. Moreover, the TGI in the assay with NCI-H522 lung and in the assay on KM12 colon was above 100 µM throughout.
